Data reported in ChEMBL document CHEMBL1629615, “Intrapulmonary pharmacokinetics and pharmacodynamics of posaconazole at steady state in healthy subjects” (Antimicrob Agents Chemother, 2009).

Tests used:
[1] = Cmax in healthy human plasma at 200 mg, po every 12 hrs for 5 days; type: ADME, organism-based; parameters: dose 200 mg, route oral
[2] = Cmax in healthy human alveolar cell at 200 mg, po every 12 hrs for 5 days; type: ADME, organism-based, Lung, Pneumocyte; parameters: dose 200 mg, route oral; conditions: alveolar cells
[3] = Cmax in healthy human lung epithelial lining fluid assessed as hydroxyitraconazole at 200 mg, po every 12 hrs for 5 days; type: ADME, organism-based; parameters: dose 200 mg, route oral; conditions: in vivo
[4] = AUC (0 to 24 hrs) in healthy human plasma at 200 mg, po every 12 hrs for 5 days; type: ADME, organism-based; parameters: dose 200 mg, time < 24 hr, route oral
[5] = AUC (0 to 24 hrs) in healthy human lung epithelial lining fluid at 200 mg, po every 12 hrs for 5 days; type: ADME, organism-based; parameters: time < 24 hr, dose 200 mg, route oral
[6] = AUC (0 to 24 hrs) in healthy human alveolar cell at 200 mg, po every 12 hrs for 5 days; type: ADME, organism-based, Pneumocyte; parameters: time < 24 hr, dose 200 mg, route oral; conditions: alveolar cells

## CCC(C)n1ncn(-c2ccc(N3CCN(c4ccc(OCC5COC(Cn6cncn6)(c6ccc(Cl)cc6Cl)O5)cc4)CC3)cc2)c1=O (stereo unspecified) [ITRACONAZOLE]
[1]
  Cmax: 2100 ng/mL
[2]
  Cmax: 500 ng/mL
[3]
  Cmax: 5500 ng/mL
[4]
  AUC at 24 h: 34400 ng·h/mL
[5]
  AUC at 24 h: 7400 ng·h/mL
[6]
  AUC at 24 h: 101000 ng·h/mL
